Results as given in US7851589B2, “Polypeptide derived from the ryanodine receptor that inhibits calcium leakage” (Otsuka Pharmaceutical Co., Ltd., priority 2004, dated 2010).

Columns and labels:
[1] = test system: ischemic reperfusion injury; conditions: Hypertens. Res., 25: 303-9 (2002); cited from earlier work
[2] = test system: normal canine model; conditions: cited from earlier work
[3] = test system: tachycardia-induced canine heart failure model; conditions: cited from earlier work
[4] = molecular target: RyR2 (Canis lupus familiaris, UniProt A0A8I3MT21); conditions: cited from earlier work
Chain of RyR2 (A0A8I3MT21 1-4967): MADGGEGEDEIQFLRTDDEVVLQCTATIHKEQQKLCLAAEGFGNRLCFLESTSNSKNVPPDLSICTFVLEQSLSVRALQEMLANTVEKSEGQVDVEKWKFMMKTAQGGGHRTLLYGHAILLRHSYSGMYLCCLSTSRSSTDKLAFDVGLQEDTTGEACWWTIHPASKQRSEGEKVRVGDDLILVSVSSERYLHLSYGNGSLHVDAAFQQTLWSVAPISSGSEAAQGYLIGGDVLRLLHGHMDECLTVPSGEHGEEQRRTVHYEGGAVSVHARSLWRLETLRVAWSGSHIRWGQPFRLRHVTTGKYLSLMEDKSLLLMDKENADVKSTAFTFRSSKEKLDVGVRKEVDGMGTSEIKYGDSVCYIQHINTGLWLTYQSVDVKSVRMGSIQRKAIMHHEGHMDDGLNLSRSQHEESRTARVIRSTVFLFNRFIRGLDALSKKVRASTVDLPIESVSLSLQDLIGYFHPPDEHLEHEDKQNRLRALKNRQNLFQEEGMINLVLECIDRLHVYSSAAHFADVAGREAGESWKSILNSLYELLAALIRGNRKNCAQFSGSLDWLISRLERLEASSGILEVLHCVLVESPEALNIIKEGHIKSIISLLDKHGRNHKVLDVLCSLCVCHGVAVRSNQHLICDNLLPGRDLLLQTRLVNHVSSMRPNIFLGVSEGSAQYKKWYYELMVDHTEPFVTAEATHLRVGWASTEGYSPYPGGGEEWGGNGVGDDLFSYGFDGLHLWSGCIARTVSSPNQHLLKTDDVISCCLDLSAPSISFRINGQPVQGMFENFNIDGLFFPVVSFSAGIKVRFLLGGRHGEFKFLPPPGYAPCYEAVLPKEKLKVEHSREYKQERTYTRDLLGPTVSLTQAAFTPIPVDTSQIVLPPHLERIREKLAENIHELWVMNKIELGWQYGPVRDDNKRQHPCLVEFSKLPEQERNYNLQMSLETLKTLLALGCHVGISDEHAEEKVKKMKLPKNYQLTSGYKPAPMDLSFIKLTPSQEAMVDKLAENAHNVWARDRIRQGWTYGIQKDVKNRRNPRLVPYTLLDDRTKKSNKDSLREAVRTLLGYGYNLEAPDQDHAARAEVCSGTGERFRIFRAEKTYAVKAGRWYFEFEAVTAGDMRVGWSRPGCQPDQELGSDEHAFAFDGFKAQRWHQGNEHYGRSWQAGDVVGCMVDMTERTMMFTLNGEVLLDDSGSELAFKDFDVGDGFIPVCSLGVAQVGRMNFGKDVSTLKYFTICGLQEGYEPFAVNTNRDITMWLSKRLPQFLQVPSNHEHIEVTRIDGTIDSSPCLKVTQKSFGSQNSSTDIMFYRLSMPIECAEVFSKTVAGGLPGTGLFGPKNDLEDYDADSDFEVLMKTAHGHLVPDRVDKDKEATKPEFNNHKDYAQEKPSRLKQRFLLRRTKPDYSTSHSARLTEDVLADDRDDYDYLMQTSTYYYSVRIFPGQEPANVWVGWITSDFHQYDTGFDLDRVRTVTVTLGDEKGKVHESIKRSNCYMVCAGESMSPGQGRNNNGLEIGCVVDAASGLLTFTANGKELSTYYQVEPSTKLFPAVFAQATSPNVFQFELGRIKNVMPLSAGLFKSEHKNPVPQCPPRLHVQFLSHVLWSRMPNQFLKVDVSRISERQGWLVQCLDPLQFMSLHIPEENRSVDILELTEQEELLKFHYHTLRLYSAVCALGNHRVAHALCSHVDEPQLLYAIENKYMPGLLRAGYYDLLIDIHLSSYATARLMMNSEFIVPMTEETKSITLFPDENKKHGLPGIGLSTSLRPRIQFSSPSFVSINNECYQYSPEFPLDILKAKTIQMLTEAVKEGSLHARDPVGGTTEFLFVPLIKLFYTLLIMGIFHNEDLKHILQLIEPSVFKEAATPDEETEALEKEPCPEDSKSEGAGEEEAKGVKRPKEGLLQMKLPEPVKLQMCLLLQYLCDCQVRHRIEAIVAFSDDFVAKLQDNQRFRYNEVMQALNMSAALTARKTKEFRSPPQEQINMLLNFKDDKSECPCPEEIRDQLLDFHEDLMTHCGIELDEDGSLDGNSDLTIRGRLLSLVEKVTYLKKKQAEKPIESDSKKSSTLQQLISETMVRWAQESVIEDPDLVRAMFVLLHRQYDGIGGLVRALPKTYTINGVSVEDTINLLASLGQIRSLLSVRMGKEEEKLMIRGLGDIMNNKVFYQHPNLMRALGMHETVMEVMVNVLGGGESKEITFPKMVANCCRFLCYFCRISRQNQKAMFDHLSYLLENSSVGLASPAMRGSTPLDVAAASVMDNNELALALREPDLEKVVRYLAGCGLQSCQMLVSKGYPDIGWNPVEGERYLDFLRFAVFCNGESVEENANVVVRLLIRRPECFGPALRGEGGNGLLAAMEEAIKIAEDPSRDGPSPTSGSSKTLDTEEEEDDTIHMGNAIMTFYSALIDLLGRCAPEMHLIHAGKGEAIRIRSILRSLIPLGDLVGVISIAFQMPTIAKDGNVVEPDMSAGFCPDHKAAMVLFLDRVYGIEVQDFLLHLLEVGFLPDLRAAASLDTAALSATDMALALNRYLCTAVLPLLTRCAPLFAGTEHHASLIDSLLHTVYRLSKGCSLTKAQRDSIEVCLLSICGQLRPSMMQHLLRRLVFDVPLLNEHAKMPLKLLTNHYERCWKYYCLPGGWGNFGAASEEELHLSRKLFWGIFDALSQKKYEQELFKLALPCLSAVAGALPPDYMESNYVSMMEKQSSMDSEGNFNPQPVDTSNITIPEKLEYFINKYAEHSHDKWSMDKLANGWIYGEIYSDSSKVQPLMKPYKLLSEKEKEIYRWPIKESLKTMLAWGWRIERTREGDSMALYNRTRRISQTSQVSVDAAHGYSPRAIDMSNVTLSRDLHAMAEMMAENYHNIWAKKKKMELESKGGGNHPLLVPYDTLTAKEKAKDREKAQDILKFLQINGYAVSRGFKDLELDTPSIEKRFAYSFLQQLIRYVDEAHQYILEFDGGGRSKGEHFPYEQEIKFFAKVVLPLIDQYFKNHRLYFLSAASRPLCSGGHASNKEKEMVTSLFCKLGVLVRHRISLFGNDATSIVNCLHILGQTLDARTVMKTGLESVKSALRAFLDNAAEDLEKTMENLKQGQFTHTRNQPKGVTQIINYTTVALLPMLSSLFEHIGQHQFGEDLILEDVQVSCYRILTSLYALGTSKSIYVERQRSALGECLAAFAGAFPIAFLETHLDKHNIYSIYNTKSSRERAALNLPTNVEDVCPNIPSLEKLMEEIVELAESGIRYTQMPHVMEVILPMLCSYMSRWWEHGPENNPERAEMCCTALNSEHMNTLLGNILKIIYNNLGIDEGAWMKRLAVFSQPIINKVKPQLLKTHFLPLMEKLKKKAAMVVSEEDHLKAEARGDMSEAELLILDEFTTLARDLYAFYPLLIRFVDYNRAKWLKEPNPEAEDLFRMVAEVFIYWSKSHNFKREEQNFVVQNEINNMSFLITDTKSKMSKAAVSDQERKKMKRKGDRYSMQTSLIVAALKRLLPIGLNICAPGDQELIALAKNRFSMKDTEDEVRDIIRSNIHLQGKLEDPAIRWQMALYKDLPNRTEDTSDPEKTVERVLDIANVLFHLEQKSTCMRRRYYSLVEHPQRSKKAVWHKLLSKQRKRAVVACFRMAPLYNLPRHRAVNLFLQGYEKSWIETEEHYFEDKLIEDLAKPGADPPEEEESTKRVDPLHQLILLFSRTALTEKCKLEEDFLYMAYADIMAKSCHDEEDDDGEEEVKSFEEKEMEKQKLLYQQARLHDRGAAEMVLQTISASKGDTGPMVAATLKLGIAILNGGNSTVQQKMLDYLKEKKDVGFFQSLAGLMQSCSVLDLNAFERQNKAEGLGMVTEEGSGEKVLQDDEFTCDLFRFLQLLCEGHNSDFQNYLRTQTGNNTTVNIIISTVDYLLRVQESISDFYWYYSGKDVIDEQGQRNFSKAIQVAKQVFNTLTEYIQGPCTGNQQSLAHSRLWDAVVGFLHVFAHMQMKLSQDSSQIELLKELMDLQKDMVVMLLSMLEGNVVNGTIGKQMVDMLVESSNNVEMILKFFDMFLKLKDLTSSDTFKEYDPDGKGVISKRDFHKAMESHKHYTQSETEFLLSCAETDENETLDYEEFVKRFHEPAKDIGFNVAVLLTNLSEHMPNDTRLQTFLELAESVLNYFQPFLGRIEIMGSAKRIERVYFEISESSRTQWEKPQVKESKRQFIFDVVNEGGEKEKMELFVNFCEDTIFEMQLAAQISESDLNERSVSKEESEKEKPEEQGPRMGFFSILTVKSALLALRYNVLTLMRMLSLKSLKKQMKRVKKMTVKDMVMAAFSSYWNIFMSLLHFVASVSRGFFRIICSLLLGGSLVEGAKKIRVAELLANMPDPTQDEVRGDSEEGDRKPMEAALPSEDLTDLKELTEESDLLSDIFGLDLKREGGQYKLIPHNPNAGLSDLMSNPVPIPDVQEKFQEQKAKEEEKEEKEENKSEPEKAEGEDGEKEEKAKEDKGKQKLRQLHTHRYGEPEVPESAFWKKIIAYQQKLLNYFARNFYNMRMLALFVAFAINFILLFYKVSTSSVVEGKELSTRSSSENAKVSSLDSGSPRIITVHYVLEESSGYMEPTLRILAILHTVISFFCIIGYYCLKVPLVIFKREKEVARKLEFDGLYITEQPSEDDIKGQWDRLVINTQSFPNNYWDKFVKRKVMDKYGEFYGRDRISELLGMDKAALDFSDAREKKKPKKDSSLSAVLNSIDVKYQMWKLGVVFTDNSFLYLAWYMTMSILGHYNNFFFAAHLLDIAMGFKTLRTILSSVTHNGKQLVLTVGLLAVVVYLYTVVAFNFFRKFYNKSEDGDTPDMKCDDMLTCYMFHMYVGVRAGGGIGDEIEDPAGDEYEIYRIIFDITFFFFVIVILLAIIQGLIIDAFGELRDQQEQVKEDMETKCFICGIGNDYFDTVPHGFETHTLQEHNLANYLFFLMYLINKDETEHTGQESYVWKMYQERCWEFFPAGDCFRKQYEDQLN

[5] = test system: neuron death during cerebral ischemia; conditions: Neurosci. Lett., 158: 105-108 (1993); cited from earlier work
[6] = test system: ryanodine receptor; assay: FK506-induced Ca2+ leakage in sarcoplasmic reticulum derived from canine myocardium (fluo 3 indicator); assay type: biochemical; conditions: for Ca2+ leakage inhibitory effect: 30 μM FK506 + 1 μM thapsigargin, value 20 seconds after addition, canine myocardial sarcoplasmic reticulum; for Ca2+ leakage inhibitory effect / Ca2+ leakage inhibitory activity compared with R2P: polypeptide 0.1, 0.3 or 1.0 μM
Protocol: Ca^2+ leakage inhibitory activity was measured through the method of Yano, M., et al. [Yano, et al., Circulation, 102, 2131-2136 (2000)].
Firstly, sarcoplasmic reticulum was prepared from canine myocardium through the method of Kranias, et al. [Kranias E., et al., Biochim. Biophys. Acta., 709, 28-37 (1982)].
Subsequently, the sarcoplasmic reticulum (0.2 mg/mL) was incubated in 0.5 mL of 20 mM MOPS buffer (pH 6.8) containing […] potassium gluconate, 0.2 mM EGTA-calcium buffer (free calcium: Ca^2+=0.3 μM), and 10 mM NaN3.
After the fluorescence value was maintained constant, 0.5 mM ATP (product of Sigma) and 0.5 mM magnesium chloride were added to the resultant mixture, to thereby initiate Ca^2+ uptake. The time course of Ca^2+ uptake was measured. Ca^2+ uptake was measured by means of fluo 3 (product of Molecular Probes) serving as a Ca^2+ indicator, and the fluorescence intensity at an excitation wavelength of 480 nm and an emission wavelength of 530 nm was measured by means of a fluorometer.
After Ca^2+ uptake reached a plateau, 1 μM thapsigargin (product of Wako Pure Chemical Industries, Ltd.) was added to thereby inhibit sarco(endo)plasmic reticulum Ca-ATPase (SERCA) activity for elimination of the influence of SERCA. The difference between the fluorescence value before addition of ATP and the fluorescence value at the time of completion of ATP-induced active Ca^2+ uptake (i.e., the fluorescence value at the time when Ca^2+ uptake reached a plateau) was taken as 100%.
Ca^2+ leakage induced by simultaneous addition of thapsigargin and 30 μM FK506 (product of Fujisawa Pharmaceutical Co., Ltd,), which was regarded as a control of Ca^2+ leakage induction, was measured by means of a Ca^2+ indicator.
A polypeptide obtained in (a) above (concentration: 0.1 μM, 0.3 μM, or 1.0 μM) and FK506 (30 μM/L) were added simultaneously with administration of thapsigargin, and the effect of inhibiting the thus-induced Ca^2+ leakage via ryanodine receptor was measured by means of a Ca^2+ indicator in a manner similar to that described above.
In each of these figures, the vertical axis corresponds to the value as measured 20 seconds after addition of thapsigargin, FK506, and a polypeptide. The value is the average of data of measurement performed twice or three times.

| Molecule | Ca2+ leakage inhibitory effect [6] | Ca2+ leakage inhibitory activity compared with R2P ([6]; FK506-induced leakage) | other results |
| --- | --- | --- | --- |
| COc1ccc2c(c1)CN(C(=O)CCN1CCC(Cc3ccccc3)CC1)CCS2 [JTV-519] | – | – | Effect on ischemic reperfusion injury [1]: effective for ischemic reperfusion injury; Effect on cardiac function [2]: exhibit no effect on cardiac function; Effect on cardiac function [3]: exhibit the effect of improving cardiac function; Correction of abnormal Ca2+ leakage via RyR2 ([4]; Non-Patent Document 9): corrects abnormal Ca^2+ leakage via RyR2; Inhibition of Ca2+ leakage from the sarcoplasmic reticulum of failing myocardium ([4]; known property of the control): inhibit Ca^2+ leakage from the sarcoplasmic reticulum of failing myocardium in a concentration-dependent manner |
| O=C1CN(/N=C/c2ccc(-c3ccc([N+](=O)[O-])cc3)o2)C(O)=N1 [dantrolene] | – | – | Inhibition of neuron death during cerebral ischemia [5]: inhibit neuron death during cerebral ischemia |
| MSV-RP2: M+2112-2149; addition of methionine, serine and valine to the N-terminal of R2P (MSVEDTINLLASLGQIRSLLSVRMGKEEEKLMIRGLGDI) | exhibit Ca^2+ leakage inhibitory effect in a concentration-dependent manner | lower than that of R2P | – |
| R2JF: hRyR2 amino acid Nos. 2086-2133; SEQ ID NO: 14 peptide introduced to the N-terminal of RP1-20 (VLLHRQYDGIGGLVRALPKTYTINGVSVEDTINLLASLGQIRSLLSVR) | exhibit no Ca^2+ leakage inhibitory effect | – | – |
| R2P: 36 amino acids corresponding to positions 2114 to 2149 of human ryanodine receptor type 2 (hRyR2) (EDTINLLASLGQIRSLLSVRMGKEEEKLMIRGLGDI) | inhibits Ca^2+ leakage in a concentration-dependent manner | – | Ca2+ leakage inhibitory effect compared with control JTV519 ([6]; 1.0 μM polypeptide vs 0.3 μM JTV519, FK506-induced leakage): comparable to that of 0.3 μM JTV519 |
| RP1-20: hRyR2 amino acid Nos. 2114-2133; deletion of 16 amino acids at the C-terminal of R2P (EDTINLLASLGQIRSLLSVR) | exhibit Ca^2+ leakage inhibitory effect in a concentration-dependent manner | lower than that of R2P | – |
| RP1-25: hRyR2 amino acid Nos. 2114-2138; deletion of 11 amino acids at the C-terminal of R2P (EDTINLLASLGQIRSLLSVRMGKEE) | exhibit Ca^2+ leakage inhibitory effect in a concentration-dependent manner | lower than that of R2P | – |
| RP1-30: hRyR2 amino acid Nos. 2114-2143; deletion of six amino acids at the C-terminal of R2P (EDTINLLASLGQIRSLLSVRMGKEEEKLMI) | exhibit Ca^2+ leakage inhibitory effect in a concentration-dependent manner | lower than that of R2P | – |
| RP13-32: hRyR2 amino acid Nos. 2126-2145; deletion of 12 N-terminal and four C-terminal amino acids of R2P (IRSLLSVRMGKEEEKLMIRG) | exhibit Ca^2+ leakage inhibitory effect in a concentration-dependent manner | lower than that of R2P | – |
| RP17-36: hRyR2 amino acid Nos. 2130-2149; deletion of 16 amino acids at the N-terminal of R2P (LSVRMGKEEEKLMIRGLGDI) | exhibit Ca^2+ leakage inhibitory effect in a concentration-dependent manner | lower than that of R2P | – |
| SEQ ID NO: 14: hRyR2 amino acid Nos. 2086-2113 (VLLHRQYDGIGGLVRALPKTYTINGVSV) | having no Ca^2+ leakage inhibitory effect | – | – |
